Earlier results as cited in US8431724B2, “Iejimalid analoga and uses thereof” (Studiengesellschaft Kohle mbH, priority 2007, dated 2013).

Key:
P388 leukemia = details: Kobayashi's report
[1] = test system: panel of 60 standard human cancer cell lines; details: NCI dataset 2005

CO[C@@H]1/C=C(C)/C=C/[C@@H](C)/C=C/C(=O)O[C@H](/C(C)=C/C=C(\C)CNC(=O)[C@H](COS(=O)(=O)[O-])NC=O)[C@@H](C)/C=C/C=C/[C@@H](OC)CC/C=C(C)\C=C\C1.[Na+] [compound 3, Iejimalide C]
in vivo activity against P388 leukemia (P388 leukemia): potent in vivo activity

CO[C@@H]1/C=C(C)/C=C/[C@@H](C)/C=C(\C)C(=O)O[C@H](/C(C)=C/C=C(\C)CNC(=O)[C@H](COS(=O)(=O)[O-])NC=O)[C@@H](C)/C=C/C=C/[C@@H](OC)CC/C=C(C)\C=C\C1.[Na+] [compound 4, Iejimalide D]
in vivo activity against P388 leukemia (P388 leukemia): potent in vivo activity

Iejimalide A
GI50 [1]: low nanomolar range
TGI [1]: low nanomolar range
